Measurements taken from patent publication US4906753A, “Preparation of 2,6-disubstituted-5-cyano-4-pyrimidinyloxyacetic acid aldose reductase inhibitors” (American Home Products Corporation, priority 1988, dated 1990).
Like-named read-outs stand apart in the source and are kept apart here.

Experiments:
galactosemic rats = test: lowering of dulcitol (galactitol) accumulation in tissues of galactosemic rats; format: in vivo, rat (male Sprague-Dawley); conditions: for % Lowering dulcitol accumulation IN VIVO, D: Table 1, diaphragm
Procedure: Such experiments are exemplified hereinbelow after the listing of the following general comments pertaining to these experiments:
Male Sprague-Dawley rats, weighing approximately 90 grams were separated into groups of equal average body weight, with six animals per group. The animals were housed in cages of six animals each and maintained on 12 hour night/12 hour day cycles. Except as otherwise noted, the animals were given food and water ad libitum.
On day 1, the galactosemic control group and all drug-treated groups were given access to 20% galactose chow (Bio-Serv, Frenchtown, NJ). Animals in the control group were given access to 20% glucose chow (Bio-Serv). Test compounds were administered either in the diet or by gavage as a suspension in 2% Tween 80 in saline. In experiments, in which gavage dosing was used, the animals were administered the test compound daily at approximately the same hour each day. Food intake and body weight were determined twice during the course of the experiment. In cases in which the compound was administered in the diet, the average dose was calculated on the basis of the actual average food intake during the experiment.
On the morning of day 5, all animals were fasted; beginning two hours later the animals were decapitated and the lenses, sciatic nerves, and a 50-100 mg portion of the diaphragm were removed, weighed, and frozen in porcelain plates on dry ice.
Only two minor reagent changes were made: (a) the rinsing mixture was an aqueous 5% (w/v) trichloroacetic acid solution and (b) the stock solution was prepared by dissolving 25 mg of dulcitol in 100 mL of an aqueous trichloroacetic acid solution. [N.B.: For each experiment the average value found in the tissue from rats fed the glucose diet was subtracted from the individual values found in the corresponding tissue in galactose-fed rats to obtain the amount of polyol accumulated.]
The figures under L, N and D represent the percentage decrease of galactitol accumulation in the tissues of the lens, sciatic nerve, and diaphragm, respectively, for treated rats as compared to untreated rats.

aldose reductase [1] = target: T1, aldose reductase (Bos taurus, UniProt P16116); test: in vitro aldose reductase inhibition (modified Hayman and Kinoshita procedure); format: biochemical, bovine (lens); conditions: for inhibition at 10 µM: read-out: % Inhibition IN VITRO 10^-5 M; for inhibition at 1 µM: 10^-6 M; for inhibition at 0.1 µM: 10^-7 M
T1 construct: preparation of the enzyme from bovine lens; from tissue; host or cells: bovine lens
Source text: In the present case the procedure of Hayman and Kinoshita was modified in that the final chromatography step was omitted in the preparation of the enzyme from bovine lens.

aldose reductase [2] = conditions: reported in U.S. Pat. No. 4,568,693; cited from earlier work

CCCCCCSc1nc(C(C)(C)C)nc(OCC(=O)O)c1C#N [Example 11 (Table 1)]
% Lowering dulcitol accumulation IN VIVO, D (galactosemic rats; 112 mg/kg): 60%

CC(C)Sc1nc(C(C)(C)C)nc(OCC(=O)O)c1C#N [Example 12 (Table 1)]
inhibition at 10 µM (aldose reductase [1]; Table 1, 10^-5 M): 92%
inhibition at 1 µM (aldose reductase [1]; Table 1): 91%
inhibition at 0.1 µM (aldose reductase [1]; Table 1): 89%
% Lowering dulcitol accumulation IN VIVO, D (galactosemic rats; 82 mg/kg): 19%

CSc1nc(-c2cccs2)nc(OCC(=O)O)c1C#N [Example 17 (Table 1)]
inhibition at 1 µM (aldose reductase [1]; Table 1): 97%
inhibition at 0.1 µM (aldose reductase [1]; Table 1): 92%
inhibition at 10 µM (aldose reductase [1]): 98%

N#Cc1c(OCC(=O)O)nc(-c2ccccc2)nc1-c1ccccc1 [Example 4 (Table 2)]
inhibition at 0.1 µM (aldose reductase [1]; Table 2): 85%
% Lowering dulcitol accumulation IN VIVO, L (galactosemic rats; Table 2, lens, 100 mg/kg): 17%

Cc1nc(-c2ccccc2)nc(OCC(=O)O)c1C#N
inhibition at 10 µM (aldose reductase [1]; Table 2, 10^-5 M): 92%
inhibition at 1 µM (aldose reductase [1]; Table 2): 88%
inhibition at 0.1 µM (aldose reductase [1]; Table 2): 79%

CSc1nc(C(C)C)nc(OCC(=O)O)c1C#N [Example 5 (Table 1)]
inhibition at 1 µM (aldose reductase [1]; Table 1): 97%
inhibition at 0.1 µM (aldose reductase [1]; Table 1): 88%
inhibition at 10 µM (aldose reductase [1]): 98%

CSc1nc(-c2ccc(Br)cc2)nc(OCC(=O)O)c1C#N [Example 9 (Table 1)]
inhibition at 10 µM (aldose reductase [1]; Table 1, 10^-5 M): 95%
inhibition at 1 µM (aldose reductase [1]; Table 1): 93%
inhibition at 0.1 µM (aldose reductase [1]; Table 1): 82%
% Lowering dulcitol accumulation IN VIVO, D (galactosemic rats; 114 mg/kg): 27%

CCCc1nc(OCC(=O)O)c(C#N)c(SC)n1 [Example 7 (Table 1)]
inhibition at 10 µM (aldose reductase [1]; Table 1, 10^-5 M): 92%
inhibition at 1 µM (aldose reductase [1]; Table 1): 89%
inhibition at 0.1 µM (aldose reductase [1]; Table 1): 74%

Cc1nc(-c2cccc3ccccc23)nc(OCC(=O)O)c1C#N [Example 3 (Table 2)]
inhibition at 10 µM (aldose reductase [1]; Table 2, 10^-5 M): 93%
inhibition at 1 µM (aldose reductase [1]; Table 2): 85%
inhibition at 0.1 µM (aldose reductase [1]; Table 2): 46%

N#Cc1c(OCC(=O)O)nc(C2CCCCC2)nc1SCc1ccccc1 [Example 8 (Table 1)]
inhibition at 10 µM (aldose reductase [1]; Table 1, 10^-5 M): 95%
inhibition at 1 µM (aldose reductase [1]; Table 1): 91%
inhibition at 0.1 µM (aldose reductase [1]; Table 1): 73%

N#Cc1c(OCC(=O)O)nc(-c2cccc3ccccc23)nc1-c1ccccc1 [Example 5 (Table 2)]
inhibition at 10 µM (aldose reductase [1]; Table 2, 10^-5 M): 79%
inhibition at 1 µM (aldose reductase [1]; Table 2): 76%
inhibition at 0.1 µM (aldose reductase [1]; Table 2): 53%

COc1ccc2c(C(=S)N(C)CC(=O)O)cccc2c1C(F)(F)F [tolrestat, N-[[6-methoxy-5-(trifluoromethyl)-1-naphthalenyl]-thioxomethyl]-N-methylglycine, reference compound]
inhibitor of aldose reductase (aldose reductase [2]): effective inhibitor of aldose reductase

CSc1nc(C)nc(OCC(=O)O)c1C#N [Example 13 (Table 1)]
inhibition at 10 µM (aldose reductase [1]; Table 1, 10^-5 M): 90%
inhibition at 1 µM (aldose reductase [1]; Table 1): 84%
inhibition at 0.1 µM (aldose reductase [1]; Table 1): 55%

CSc1nc(-c2ccccc2)nc(OCC(=O)O)c1C#N [Example 14 (Table 1)]
inhibition at 10 µM (aldose reductase [1]; Table 1, 10^-5 M): 92%
inhibition at 1 µM (aldose reductase [1]; Table 1): 87%
inhibition at 0.1 µM (aldose reductase [1]; Table 1): 75%
% Lowering dulcitol accumulation IN VIVO, D (galactosemic rats; 96 mg/kg): 55%

CSc1nc(Cc2ccccc2)nc(OCC(=O)O)c1C#N
inhibition at 10 µM (aldose reductase [1]; Table 1, 10^-5 M): 91%
inhibition at 1 µM (aldose reductase [1]; Table 1): 90%
inhibition at 0.1 µM (aldose reductase [1]; Table 1): 78%

CSc1nc(C(C)(C)C)nc(OCC(=O)O)c1C#N [Example 3 (Table 1)]
inhibition at 10 µM (aldose reductase [1]; Table 1, 10^-5 M): 89%
inhibition at 1 µM (aldose reductase [1]; Table 1): 88%
inhibition at 0.1 µM (aldose reductase [1]; Table 1): 82%
% Lowering dulcitol accumulation IN VIVO, D (galactosemic rats; 83 mg/kg): 32%

CC(C)(C)c1nc(OCC(=O)O)c(C#N)c(SCc2ccc(Br)cc2F)n1 [Example 2 (Table 1)]
inhibition at 1 µM (aldose reductase [1]; Table 1): 93%
inhibition at 0.1 µM (aldose reductase [1]; Table 1): 93%
inhibition at 10 µM (aldose reductase [1]): 98%
% Lowering dulcitol accumulation IN VIVO, D (galactosemic rats; 99 mg/kg): 47%

CSc1nc(C2CCCCC2)nc(OCC(=O)O)c1C#N [Example 15 (Table 1)]
inhibition at 10 µM (aldose reductase [1]; Table 1, 10^-5 M): 90%
inhibition at 1 µM (aldose reductase [1]; Table 1): 90%
inhibition at 0.1 µM (aldose reductase [1]; Table 1): 74%

CC(C)(C)c1nc(OCC(=O)O)c(C#N)c(SCc2ccc(Br)cc2)n1 [Example 10 (Table 1)]
inhibition at 10 µM (aldose reductase [1]; Table 1, 10^-5 M): 95%
inhibition at 1 µM (aldose reductase [1]; Table 1): 95%
inhibition at 0.1 µM (aldose reductase [1]; Table 1): 95%
% Lowering dulcitol accumulation IN VIVO, D (galactosemic rats; 135 mg/kg): 58%

CC(C)(C)c1nc(OCC(=O)O)c(C#N)c(SCc2ccccc2)n1 [Example 16 (Table 1)]
inhibition at 10 µM (aldose reductase [1]; Table 1, 10^-5 M): 86%
inhibition at 1 µM (aldose reductase [1]; Table 1): 85%
inhibition at 0.1 µM (aldose reductase [1]; Table 1): 82%
% Lowering dulcitol accumulation IN VIVO, D (galactosemic rats; 97 mg/kg): 67%

N#Cc1c(Cc2cccc3ccccc23)nc(-c2cccc3c(Br)cccc23)nc1OCC(=O)O [Example 1 (Table 2), [[2-(5-Bromo-1-naphthalenyl)-5-cyano-6-[(1-naphthalenyl)methyl]-4-pyrimidinyl]oxy]acetic Acid]
inhibition at 10 µM (aldose reductase [1]; Table 2, 10^-5 M): 90%
inhibition at 1 µM (aldose reductase [1]; Table 2): 85%
inhibition at 0.1 µM (aldose reductase [1]; Table 2): 46%

CSc1nc(CC(C)(C)C)nc(OCC(=O)O)c1C#N [Example 4 (Table 1)]
inhibition at 10 µM (aldose reductase [1]; Table 1, 10^-5 M): 95%
inhibition at 1 µM (aldose reductase [1]; Table 1): 96%
inhibition at 0.1 µM (aldose reductase [1]; Table 1): 85%
% Lowering dulcitol accumulation IN VIVO, D (galactosemic rats; 98 mg/kg): 22%

CC(C)(C)c1nc(OCC(=O)O)c(C#N)c(SCC2CCCCC2)n1 [Example 1 (Table 1), [[5-Cyano-6-[(cyclohexylmethyl)thio]-2-(1,1-dimethylethyl)-4-pyrimidinyl]oxy]acetic Acid]
inhibition at 10 µM (aldose reductase [1]; Table 1, 10^-5 M): 97%
inhibition at 1 µM (aldose reductase [1]; Table 1): 96%
inhibition at 0.1 µM (aldose reductase [1]; Table 1): 88%

CC(C)c1nc(-c2cccc3c(Br)cccc23)nc(OCC(=O)O)c1C#N [Example 6 (Table 2)]
inhibition at 10 µM (aldose reductase [1]; Table 2, 10^-5 M): 94%
inhibition at 1 µM (aldose reductase [1]; Table 2): 90%
inhibition at 0.1 µM (aldose reductase [1]; Table 2): 53%
